Assay results reported in PMC11510342, “Synthesis, Characterization, Bioavailability and Antimicrobial Studies of Cefuroxime-Based Organic Salts and Ionic Liquids” (Pharmaceutics, 2024).
Like-named read-outs stand apart in the source and are kept apart here.

Legend:
[1] = Water solubility at 37 °C by consecutive addition of water until full dissolution; assay type: physicochemical
Experimental: The solubility of the prepared cefuroxime OSILs was determined by adding known volumes of water consecutively to a certain amount of CFX-OSILs at 37 °C until full dissolution was observed. Figure 3 presents the maximum water solubility values of the prepared CFX-OSILs.

3T3 murine fibroblasts = assay: Cytotoxicity on 3T3 cells (MTT assay); assay type: cell-based; settings: 24 h; for IC50: read-out: IC50 for toxicity on 3T3 murine fibroblasts; for Toxicity to 3T3 murine fibroblasts compared with the original drug (CFX): 100 µM
Experimental: Cytotoxic activities were evaluated on 3T3 cells previously acquired from Leibniz Institute DSMZ, Germany biobank (ACC173). Cells were cultured in Dulbecco’s Modified Eagle’s medium: Nutrient Mix F-12 (DMEM/F-12) (Merck, Darmstadt, Germany) supplemented with 10% fetal bovine serum (Gibco, Grand Island, NY, USA), 100 IU/mL penicillin and 100 μg/mL streptomycin (Sigma, St. Louis, MO, USA). For subculture, 3T3 cells were dissociated using trypsin-EDTA (Sigma, USA) with a split 1:5 ratio and seeded into Petri dishes with 25 cm^2 of growth area. Culture medium was replaced every 2 days until cells reached total confluence after 3–5 days of initial seeding. Cells were maintained in a humidified atmosphere with 5% CO2 at 37 °C. The effects on 3T3 cells’ viability were evaluated after cells reached total confluence. […] The effects were estimated via MTT (Sigma, St. Louis, MO, USA) assays as a cellular metabolic activity colorimetric analysis. Results were expressed in percentage of control (%).

[2] = system: Escherichia coli (ATCC 25922); assay: Antimicrobial activity, growth inhibition (OD 600 nm); assay type: cell-based; settings: for IC50: read-out: IC50 E. coli
Experimental: (§1) The antimicrobial activity of compounds was evaluated against Bacillus subtilis (ATCC 6633), Pseudomonas aeruginosa (ATCC 27853) and Escherichia coli (ATCC 25922) grown in Lysogeny broth (Sigma, Darmstadt, Germany).

[3] = system: Pseudomonas aeruginosa (ATCC 27853); assay: as above; assay type: cell-based; settings: for IC50: read-out: IC50 P. aeruginosa
Experimental: as §1

[4] = system: Bacillus subtilis (ATCC 6633); assay: as above; assay type: cell-based; settings: for IC50: read-out: IC50 B. subtilis
Experimental: as §1

[5] = Octanol-water partition studies (Kow); assay type: physicochemical
[6] = cited from earlier work
[7] = Mus musculus, Fibroblast, MTT, 1–100 µM
[8] = Escherichia coli, ATCC25922, 6 h, 0.03–100 µM, interval in brackets
[9] = Pseudomonas aeruginosa, ATCC27853, 6 h, 0.03–100 µM, interval in brackets
[10] = Bacillus subtilis, ATCC6633, 6 h, 0.03–100 µM, interval in brackets
[11] = 6 h, 0.03–100 µM, interval in brackets

Compound | IC50 (3T3 murine fibroblasts; [7]) [µM] | IC50 [2, 8] [µM] | IC50 [3, 9] [µM] | IC50 [4, 10] [µM] | Toxicity to 3T3 murine fibroblasts compared with the original drug (CFX) (3T3 murine fibroblasts; MTT) | IC50 (3T3 murine fibroblasts; MTT, 1–100 µM) [µM] | IC50 [2, 11] [µM] | IC50 [3, 11] [µM] | IC50 [4, 11] [µM] | further results
CO/N=C(\C(=O)N[C@@H]1C(=O)N2C(C(=O)O)=C(COC(N)=O)CS[C@H]12)c1ccco1 [CFX, Cefuroxime] | > 100 | 6.42 | 0.55 | 0.95 | – | – | – | – | – | solubility ([1]; water, 37 °C): < 700 µg/mL
CCCCCC[n+]1ccccc1 [[C6Py]Br, reference compound] | > 100 | > 100 | > 100 | > 100 | – | – | – | – | – | –
CCCCCC[n+]1ccccc1.CO/N=C(\C(=O)N[C@@H]1C(=O)N2C(C(=O)[O-])=C(COC(N)=O)CS[C@H]12)c1ccco1 [[C6Py][CFX]] | – | – | – | – | no additional detrimental effect | > 100 | 26.8 | 3.99 | 8.85 | –
CCCCCCCCCC[n+]1ccccc1 [[C10Py]Br, reference compound] | 98 | > 100 | 95.5 | 80.9 | – | – | – | – | – | –
CCCCCCCCCC[n+]1ccccc1.CO/N=C(\C(=O)N[C@@H]1C(=O)N2C(C(=O)[O-])=C(COC(N)=O)CS[C@H]12)c1ccco1 [[C10Py][CFX]] | – | – | – | – | more toxic | 62.5 | 90.3 | 16.6 | 23 | Increase in water solubility relative to free CFX [1]: > 7.7 fold; Water solubility [1]: 5400 µg/mL; Kow in comparison with the original drug (CFX) [5]: approximately four-times greater; Relative toxicity on 3T3 cells (comparison of IC50 values) (3T3 murine fibroblasts; MTT): approximately five-times less toxic
CCCCCCCCCCCCCCCC[n+]1ccn(C)c1 [[C16MIM]Br, reference compound] | 13.3 | 11.3 | 4.81 | 5.19 | – | – | – | – | – | –
CCCCCCCCCCCCCCCC[n+]1ccn(C)c1.CO/N=C(\C(=O)N[C@@H]1C(=O)N2C(C(=O)[O-])=C(COC(N)=O)CS[C@H]12)c1ccco1 [[C16MIM][CFX]] | – | – | – | – | more toxic | 13.9 | 9.23 | 4.02 | 2.65 | Water solubility [1]: 11000 µg/mL; Octanol-water partition (Kow) [5]: 1.7
CCCCCCCCCCCCCCCC[n+]1ccccc1.CO/N=C(\C(=O)N[C@H]1C(=O)N2C(C(=O)[O-])=C(COC(N)=O)CS[C@@H]12)c1ccco1 [[C16Py][CFX]] | – | – | – | – | more toxic | 11.7 | 9.66 | 4.54 | 5.08 | Increase in water solubility relative to free CFX [1]: > 7.7 fold; Water solubility [1]: 5500 µg/mL; Octanol-water partition (Kow) [5]: 2.5
c1cc[n+](CCCCCCCCCC[n+]2ccccc2)cc1 [[PyC10Py]Br2, decylbispyridinium dibromide, reference compound] | – | – | – | – | – | – | – | – | – | IC50 (3T3 murine fibroblasts; Mus musculus, Fibroblast): > 100 µM; IC50 ([2]; Escherichia coli, ATCC25922, 6 h): > 100 µM; IC50 ([3]; Pseudomonas aeruginosa, ATCC27853, 6 h): > 100 µM; IC50 ([4]; Bacillus subtilis, ATCC6633, 6 h): > 100 µM
CO/N=C(\C(=O)N[C@@H]1C(=O)N2C(C(=O)[O-])=C(COC(N)=O)CS[C@H]12)c1ccco1.CO/N=C(\C(=O)N[C@@H]1C(=O)N2C(C(=O)[O-])=C(COC(N)=O)CS[C@H]12)c1ccco1.c1cc[n+](CCCCCCCCCC[n+]2ccccc2)cc1 [[PyC10Py][CFX]2] | – | – | – | – | no additional detrimental effect | > 100 | 4.92 | 0.66 | 0.85 | Water solubility ([1]; water, 37 °C): 140000 µg/mL; Antimicrobial activity against E. coli compared with CFX ([2]; times more effective than CFX): 1.3; Antimicrobial activity against P. aeruginosa compared with CFX [3]: comparable activity to CFX; Antimicrobial activity against B. subtilis compared with CFX [4]: comparable activity to CFX
CO/N=C(\C(=O)N[C@@H]1C(=O)N2C(C(=O)OC(C)OC(C)=O)=C(COC(N)=O)CS[C@H]12)c1ccco1 (some centres unmarked) [cefuroxime axetil] | – | – | – | – | – | – | – | – | – | Time of peak concentration in serum ([6]; after oral administration): approximately 2 h
CO/N=C(\C(=O)N[C@@H]1C(=O)N2C(C(=O)O)=C(COC(N)=O)CS[C@H]12)c1ccco1 [cefuroxime sodium] | – | – | – | – | – | – | – | – | – | Serum concentration ([6]; single 500 mg intramuscular dose, for a period of 2.5 to 3 h): 8000 ng/mL; Half-life ([6]; single 500 mg intramuscular dose): 1.17 h
